Experimental data: US8470776B2, “Conjugates of disorazoles and their derivatives with cell-binding molecules, novel disorazole derivatives, processes of manufacturing and uses thereof” (Aeterna Zentaris GmbH, priority 2006, dated 2013)
Converted amounts (≈) assume the structure as drawn.

How the values were obtained:
[1] = tested on: GnRH receptor positive, human ovarian carcinoma cell line OVCAR-3; assay: OVCAR-3 tumors in nude mice, single i.v. dose; type: in vivo, CD 1 nu/nu nude mice; conditions: for Average tumor size day 18: once on day 0, tail vein; for Average tumor size day 0: tail vein, day 0 (baseline before dosing)
Description: 30 CD 1 nu/nu nude mice were inoculated subcutaneously with the GnRH receptor positive, human ovarian carcinoma cell line OVCAR-3 (5 million cells per animal). The experiment was started after formation of solid tumors. 5 animals per dose group were used.
On day 0 of the experiment, the individual tumor volume was determined by palpation and set to 100%. Test compounds were administered subsequently on day 0 of the experiment by injection into the tail vein of the test animals.
A standard volume of 10 ml of 0.9% saline per kg (200 μl per 20 g mouse) containing the test compound in the required concentration was administered once only on day 0 of the experiment.
The tumor size was determined again by palpation on day 18 of the experiment.
In the case of appearance of additional tumors, the volumes were added.

[2] = tested on: RKOp27 cells (human colon carcinoma cell line RKO), p27kip1 not induced; assay: cells; type: cell-based; conditions: for IC50 RKOp27: without expression of p27kip1, XTT, 45 h
Text: (§1) The cell lines used are the human cervical carcinoma cell line KB/HeLa (ATCC CCL17), the ovarian adenocarcinoma cell line SKOV-3 (ATCC HTB77), the human glioblastoma cell line SF-268 (NCI-503138) and the lung carcinoma cell line NCI-H460 (NCI-503473). In addition, for the investigation of the cell cycle-specific action of the compounds of the invention, an RKOp27 cell system was used (Schmidt M et al. Oncogene 2000, 19(20): 2423-2429). RKO is a human colon carcinoma cell line (ATCC CRL-2577), in which the cell cycle inhibitor p27^kip1 induced by means of the ecdysone expression system is expressed and can be led to a cell cycle arrest specifically in […]. A nonspecifically acting substance inhibits the proliferation independently of whether the RKO cell is or is not arrested in G1 or G2. Cell cycle-specific substances such as, for example, tubulin inhibitors are, however, only cytotoxic if cells are not arrested and the cell cycle is passed through.
(§2) The adherently growing tumor cell lines KB/HeLa, SKOV-3, SF-268 and NCI-H460 were cultured under standard conditions in an incubator at 37° C., 5% CO2 and 95% atmospheric humidity. On experimental day 1, the cells are detached using trypsin/EDTA and pelleted by centrifugation. Subsequently, the cell pellet is resuspended in the respective culture medium at the corresponding cell count and reacted in a 96-well microtiter plate. The plates are then cultured overnight in the incubator. The test substances are prepared as 1 mg/ml stock solutions in DMSO and diluted to the appropriate concentrations on experimental day 2 using culture medium. The substances in culture medium are then added to the cells and incubated in the incubator for 45 h. As a control, cells which are not treated with test substance are used. For the XTT assay, 1 mg/ml of XTT (sodium 3′-[1-(phenylaminocarbonyl)-3,4-tetrazolium]-bis(4-methoxy-6-nitro)benzenesulfonic acid) is dissolved in RPMI-1640 medium without Phenol Red. Additionally, a 0.383 mg/ml PMS (N-methyldibenzopyrazine methylsulfate) solution in phosphate-buffered saline solution (PBS) is prepared. On experimental day 4, 75 μl/well of XTT-PMS mixture is pipetted onto the cell plates which in the meantime have been incubated with the test substances for 45 h. For this, shortly before use, the XTT solution is mixed with the PMS solution in the ratio 50:1 (vol:vol). The cell plates are then incubated in the incubator for a further 3 h and the optical density (OD490 nm) is determined in a photometer. By means of the OD490 nm determined, the percentage inhibition is calculated relative to the control and plotted semilogarithmically in the form of a concentration-action curve. The IC50 is calculated by means of a regression analysis from the concentration-action curve using the program Graphpad Prism.
(§3) The assay is carried out in 96-well plates. […] By comparison of the activity on induced and noninduced cells, conclusions on the mechanism of action (cell cycle specificity) of the therapeutics can be drawn. […] cells are inoculated in approximately three-fold higher cell count, since division no longer takes place during the assay in comparison with uninduced cells (20000 cells/well induced, 6250 cells/well not induced). The controls are untreated cells (+/−induction). The induction is carried out with 3 μM muristerone A. On the 1st day, the cells are exposed (+/−muristerone A) and incubated at 37° C. for 24 h. On day 2, the test substance is added (control DMSO) and incubation is continued at 37° C. for a further 45 h before a standard XTT assay is carried out.

[3] = tested on: RKOp27 cells (human colon carcinoma cell line RKO), p27kip1 induced; assay: cells; type: cell-based; conditions: for IC50 RKOp27 induced: p27kip1 induced with 3 μM muristerone A, XTT, 45 h
Text: as §1, §2, §3

[4] = tested on: human GnRH receptor (hGnRH-R) positive cell line 5C6; assay: GnRH-receptor dependent proliferation assay, 5C6; type: cell-based; conditions: 30 min exposure, vital cells vs untreated control = 100%
Description: (§4) The dose-dependent receptor-mediated inhibition of cell proliferation of selected compounds of the invention was investigated.
(§5) To study these effects a human GnRH receptor (hGnRH-R) positive cell line (5C6; Beckers et al., Eur. J. Biochem. 1995, 231: 535-543) and an hGnRH-R negative cell line (LTK^−; ECACC No. 85011432) was used.
(§6) Respective cells were exposed to 1 mL culture medium in 24 well multi-titer-plates (MTPs) with a cell number of 15000 cells per well. The cell number is adjusted in such a way that after 5 days of testing the untreated control cells are still in the exponential growth phase.
(§7) Test compounds are given to the cultured cells after 4 hours of initial growth (adherence) in a volume of 100 μL to yield the final concentrations given in table 2.
(§8) After 30 min of incubation at 37° C. the entire culture medium is sucked off and the cells are washed twice with culture medium without test compounds. After the washing the cells are placed into an incubator (at 37° C., 5% CO2 and 95% atmospheric humidity) and incubated for further 4 days.
(§9) For the determination of the cell number after incubation the cells are detached using trypsin/EDTA and centrifuged. The number of vital cells and the total cell number are counted using a Vi-Cell Analyzer (Beckman Coulter).
(§10) The number of vital cells is analyzed in comparison with untreated control cells (=100%). Only cell groups (respective wells) are considered of which the total cell viability is more than 90%, i.e. inhibition of cell proliferation by unspecific toxicity can be excluded.
(§11) The proliferation status of untreated control cells after 96 hours is set to 100%.

[5] = tested on: lung carcinoma cell line NCI-H460; assay: cells; type: cell-based, human; conditions: for IC50 NCI-H460: XTT, 45 h incubation
Text: (§12) Selected compounds of the invention were investigated for their antiproliferative activity in a proliferation test on established tumor cell lines.
(§13) The test used determines the cellular dehydrogenase activity and makes possible a determination of the cell vitality and indirectly the cell count.
as §1, §2

[6] = tested on: ovarian adenocarcinoma cell line SKOV-3; assay: cells; type: cell-based, human; conditions: for IC50 SKOV-3: XTT, 45 h incubation
Text: as §12, §13, §1, §2

[7] = tested on: human glioblastoma cell line SF-268; assay: cells; type: cell-based; conditions: for IC50 SF-268: XTT, 45 h incubation
Text: as §12, §13, §1, §2

[8] = tested on: human cervical carcinoma cell line KB/HeLa; assay: cells; type: cell-based; conditions: for IC50 KB/HELA: XTT, 45 h incubation
Text: as §12, §13, §1, §2

[9] = tested on: hGnRH-R negative cell line LTK−; assay: GnRH-receptor dependent proliferation assay, LTK-; type: cell-based; conditions: 30 min exposure, vital cells vs untreated control = 100%
Description: as §4, §5, §6, §7, §8, §9, §10, §11

[10] = tested on: mammalian cells; conditions: Elnakady et al. 2004; cited from earlier work
[11] = tested on: cell models; conditions: reported in literature; cited from earlier work
[12] = tested on: paclitaxel- and vindesine-resistant cell lines; conditions: WO 2004/024149; cited from earlier work
[13] = tested on: various human tumor cell lines; conditions: nano- and picomolar concentrations; WO 2004/024149; cited from earlier work

For `C/C=C/C(O)C(C)(C(=O)OC)C1C\C=C/C=C/C=C/c2nc(co2)C(=O)OC(C(C)(C(=O)OC)C(/C=C/C)OC(=O)CCC(=O)NCCCC[C@H](NC(=O)[C@H](Cc2ccc(O)cc2)NC(=O)[C@H](CO)NC(=O)[C@H](Cc2c[nH]c3ccccc23)NC(=O)[C@H](Cc2cnc[nH]2)NC(=O)[C@@H]2CCC(=O)N2)C(=O)N[C@@H](CC(C)C)C(=O)N[C@@H](CCCNC(=N)N)C(=O)N2CCC[C@H]2C(=O)NCC(N)=O)C\C=C/C=C/C=C/c2nc(co2)C(=O)O1` (stereo partly drawn) [compound 16, Disorazole Z Mono Hemi Succinyl [D-Lys^6]LHRH], the “Average tumor size day 18” value ([1]; 0.1 mg/kg = 43 nmol/kg, day 18) was 76, the “Average tumor size day 0” value ([1]; 0.1 mg/kg = 43 nmol/kg) was 79 and the “Average tumor size day 18” value ([1]; 0.5 mg/kg = 215 nmol/kg, day 18) was 40. The “Average tumor size day 0” value ([1]; 0.5 mg/kg = 215 nmol/kg) was 74, the “IC50 RKOp27” value [2] was 5.18 ng/mL (≈ 2.49 nM) and the “IC50 RKOp27 induced” value [3] was >3160 ng/mL. For the same molecule, the “proliferation status after 96 hours, cell line 5C6, 0.1 nM” value ([4]; 0.1 nM) was 83.8%, the “proliferation status after 96 hours, cell line 5C6, 1 nM” value ([4]; 1 nM) was 80.9% and the “proliferation status after 96 hours, cell line 5C6, 10 nM” value ([4]; 10 nM) was 54.1%. For the same molecule, the “proliferation status after 96 hours, cell line 5C6, 100 nM” value ([4]; 100 nM) was 21.9%, the “IC50 NCI-H460” value [5] was 9.235 ng/mL (≈ 4.43 nM) and the “IC50 SKOV-3” value [6] was 7.683 ng/mL (≈ 3.69 nM). The “IC50 SF-268” value [7] was 17.8 ng/mL (≈ 8.55 nM), the “IC50 KB/HELA” value [8] was 18.92 ng/mL (≈ 9.09 nM) and the “proliferation status after 96 hours, cell line LTK−, 0.1 nM” value ([9]; 0.1 nM) was 101.8%. For the same molecule, the “proliferation status after 96 hours, cell line LTK−, 1 nM” value ([9]; 1 nM) was 105.8%, the “proliferation status after 96 hours, cell line LTK−, 10 nM” value ([9]; 10 nM) was 103.4% and the “proliferation status after 96 hours, cell line LTK−, 100 nM” value ([9]; 100 nM) was 61.7%.

For `C/C=C/[C@H](O)C(C)(C)[C@@H]1C\C=C/C=C\C=C\[C@H](OC)Cc2nc(co2)C(=O)O[C@H](C(C)(C)[C@@H](O)/C=C/C)C/C=C\[C@H]2O[C@H]2/C=C/C=C\c2nc(co2)C(=O)O1` [disorazol A1, disorazole A1, reference compound], the “IC50 RKOp27” value [2] was 0.049 ng/mL (≈ 0.0646 nM), the “IC50 RKOp27 induced” value [3] was >3160 ng/mL and the “IC50 NCI-H460” value [5] was 0.022 ng/mL (≈ 0.029 nM). For the same molecule, the “IC50 SKOV-3” value [6] was 0.027 ng/mL (≈ 0.0356 nM), the “induction of apoptosis in mammalian cells” value [10] was “induces apoptosis” and the “antiproliferative action in cell models” value [11] was “possesses an antiproliferative action”. For the same molecule, the “IC50 SF-268” value [7] was 0.125 ng/mL (≈ 0.165 nM) and the “IC50 KB/HELA” value [8] was 0.049 ng/mL (≈ 0.0646 nM).

For `C/C=C/C(O)C(C)(C)C1C/C=C\C2OC2C=CC(OC)Cc2nc(co2)C(=O)OC(C(C)(C)C(O)/C=C/C)C/C=C\C2OC2/C=C\C=Cc2nc(co2)C(=O)O1` (centres unmarked) [disorazol E1, disorazole E1, reference compound], the “IC50 RKOp27” value [2] is listed as 0.17 ng/mL (≈ 0.219 nM), the “IC50 RKOp27 induced” value [3] is listed as >3160 ng/mL and the “activity against paclitaxel- and vindesine-resistant cell lines” value [12] is listed as “active”. For the same molecule, the “IC50 NCI-H460” value [5] was 0.065 ng/mL (≈ 0.0839 nM), the “IC50 SKOV-3” value [6] was 0.074 ng/mL (≈ 0.0955 nM) and the “IC50 SF-268” value [7] was 0.474 ng/mL (≈ 0.612 nM). The “IC50 KB/HELA” value [8] was 0.17 ng/mL (≈ 0.219 nM) and the “cytotoxic action on various human tumor cell lines” value [13] was “possess cytotoxic action”.

For `C/C=C/C(O)C(C)(C(=O)OC)C1C\C=C/C=C/C=C/c2nc(co2)C(=O)OC(C(C)(C(=O)OC)C(O)/C=C/C)C\C=C/C=C/C=C/c2nc(co2)C(=O)O1` (centres unmarked) [disorazol Z, disorazole Z, reference compound], the “Average tumor size day 18” value ([1]; 0.16 mg/kg = 215 nmol/kg, day 18) was 146, the “Average tumor size day 0” value ([1]; 0.16 mg/kg = 215 nmol/kg) was 92 and the “suppression of tumor growth (in words)” value ([1]; OVCAR-3 tumors, single i.v. dose, day 18) was “moderate suppression of tumor growth”. The IC50 ([2]; Homo sapiens, RKOp27, 45 h, read-out: IC50 RKOp27) was 0.659 ng/mL (≈ 0.882 nM), the IC50 ([3]; Homo sapiens, RKOp27, 45 h, read-out: IC50 RKOp27 induced) was > 3160 ng/mL and the IC50 ([5]; Homo sapiens, NCI-H460, 45 h, read-out: IC50 NCI-H460) was 0.67 ng/mL (≈ 0.897 nM). It also gave an IC50 ([6]; Homo sapiens, SK-OV-3, 45 h, read-out: IC50 SKOV-3) of 0.504 ng/mL (≈ 0.675 nM), an IC50 ([7]; Homo sapiens, SF-268, 45 h, read-out: IC50 SF-268) of 1.28 ng/mL (≈ 1.72 nM) and an IC50 ([8]; Homo sapiens, HeLa, 45 h, read-out: IC50 KB/HELA) of 1.01 ng/mL (≈ 1.35 nM).

For disorazole D1, the “cytotoxic action on various human tumor cell lines” value [13] is given as “possess cytotoxic action”.
